# Measured values taken from patent US20030199494A1, “1,2,3,5-tetrahydrobenzo'c!azepin-4-one derivatives having muscarinic antagonist activity” (priority 2000, published 2003).
# Key:
# Type in all cases: cell-based
# M3 receptor [1] = target: T1, M3 receptor (Cavia porcellus, UniProt H0W1Z3); experiment: Functional tissue assay, M3 guinea-pig ileum (antagonist pA2); details: guinea-pig ileum, isometric contraction; antagonist pA2 per method; mean ± spread (n pts)
# T1 construct: Sections (2 cm) are cut from the ileum of the killed guinea-pigs; from tissue; host or cells: guinea-pig ileum
# T1 sequence (H0W1Z3 1-590): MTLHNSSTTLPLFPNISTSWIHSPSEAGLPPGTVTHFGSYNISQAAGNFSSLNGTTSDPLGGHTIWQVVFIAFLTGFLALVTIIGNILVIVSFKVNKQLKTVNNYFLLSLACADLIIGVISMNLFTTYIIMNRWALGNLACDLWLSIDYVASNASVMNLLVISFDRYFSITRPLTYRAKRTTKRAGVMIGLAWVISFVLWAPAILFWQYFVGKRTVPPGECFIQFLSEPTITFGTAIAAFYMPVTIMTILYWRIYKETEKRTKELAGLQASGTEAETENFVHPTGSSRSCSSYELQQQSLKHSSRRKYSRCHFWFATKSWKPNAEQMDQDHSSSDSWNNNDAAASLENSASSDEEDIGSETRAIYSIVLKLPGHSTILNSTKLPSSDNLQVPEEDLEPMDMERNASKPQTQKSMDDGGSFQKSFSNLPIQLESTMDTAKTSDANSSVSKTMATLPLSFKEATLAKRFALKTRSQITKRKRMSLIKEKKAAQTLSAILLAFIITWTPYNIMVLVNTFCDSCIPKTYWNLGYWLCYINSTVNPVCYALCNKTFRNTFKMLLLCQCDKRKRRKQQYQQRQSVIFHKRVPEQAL
# Source text: (§1) Functional Assays of M1, M2 and M3 Receptor Activity
# (§2) Initial evaluation of test compounds is by assay of functional tissue responses. This has the advantage that it readily discriminates between agonist partial agonist and antagonist activity
# (§3) Sections (2 cm) are cut from the ileum of the killed guinea-pigs, 10 cm from the ileo-caecal junction. One end is attached to a tissue holder/aerator and the other end via a cotton thread to an isometric transducer. The tissue is immersed in gassed normal Ca^2+ Krebs solution at 32±0.5° C. A resting tension of 0.5 g is applied and isometric contractions measured by computer or polygraph.
# (§4) Following at least 30 min equilibration to allow twitches or tension to stabilize, cumulative concentration-response curves for the muscarinic agonists are constructed. The concentration is increased in half logarithmic increments after the contraction in the presence of each concentration has plateaued Steady-state contractions at each concentration are measured and the inhibition expressed as a percentage of the baseline twitch height in atria and vas deferens or as the maxi contraction in the ileum. EC50 values for the muscarinic agonists are determined from individual curves as the molar concentration required for 50% inhibition of twitch height or the 50% of maximum contraction (ileum). Geometric mean EC50 values and their 95% confidence limits are calculated.
# (§5) A concentration-response curve to the test agonist is established in the absence of antagonist and after achieving the maximum effect, the agonist washed from the bath to restore twitch contractions. Three further concentration-response curves are then obtained in the same manner at approximately 30 min intervals, with the antagonist (Standards—pirenzepine M1, darifenacin M3, methoctramine M2) being introduced to the bath 15 min before each of these subsequent curves.
# (§6) Concentration-response curves in the absence and presence of antagonist are measured as described for the agonist studies. The shifts in the concentration-response curves in the presence of antagonist compared with the absence of antagonist are expressed as the dose-ratios (DR) of the EC50 values. pA2 values are then determined from Schild analysis of plots of the mean corrected […] against log molar concentration of antagonist. The slopes of the Schild plots are determined by linear regression and the pA2 values determined from the intercept on the concentration axis (when log(DR−1) is zero). pA2 values are also determined from individual concentrations of antagonist by applying the equations: pA2=log(DR−1) log[B], wherein B is the molar concentration of antagonist.
# M3 receptor [2] = experiment: as above; details: ileum versus atria, log10 units
# Source text: as §1, §2, §3, §4, §5, §6
# M2 receptor = target: T2, M2 receptor (Cavia porcellus, UniProt H0VRN8); experiment: Functional tissue assay, M2 guinea-pig atria (antagonist pA2); details: guinea-pig left atria, paced; antagonist pA2 per method; mean ± spread (n pts)
# T2 construct: from tissue; host or cells: guinea-pig left atrium
# T2 sequence (H0VRN8 1-466): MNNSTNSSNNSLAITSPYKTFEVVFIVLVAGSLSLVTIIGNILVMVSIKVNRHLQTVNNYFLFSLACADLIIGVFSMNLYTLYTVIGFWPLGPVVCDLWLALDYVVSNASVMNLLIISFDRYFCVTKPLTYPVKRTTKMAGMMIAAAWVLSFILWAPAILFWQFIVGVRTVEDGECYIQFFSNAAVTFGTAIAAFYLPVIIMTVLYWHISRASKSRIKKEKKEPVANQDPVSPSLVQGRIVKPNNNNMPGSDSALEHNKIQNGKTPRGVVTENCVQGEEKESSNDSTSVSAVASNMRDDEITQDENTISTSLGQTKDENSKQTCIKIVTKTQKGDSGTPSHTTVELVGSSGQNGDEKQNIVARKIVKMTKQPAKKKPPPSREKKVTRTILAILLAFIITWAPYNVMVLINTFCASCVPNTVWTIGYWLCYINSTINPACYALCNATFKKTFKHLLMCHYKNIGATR
# Source text: as §1, §2
# Guinea-pigs are killed by a blow to the back of the head and left atrium removed. The atrium is secured to a pari of stainless steel electrodes by means of a cotton thread and immersed in the organ bath containing gassed Krebs solution with normal Ca^2 + at 32±0.50C. Atria are placed at 2 Hz with square-wave pulses of 0.5 ms pulse width. Isometric contractions are recorded by computer or polygraph.
# as §4, with “EC50 values for the muscarinic agonists are determined from individual curves as the molar concentration required for 50% inhibition of twitch height or the 50% of maximum contraction (ileum). Geometric mean EC50 values and their 95% confidence limits are calculated.” left out
# Concentration-response curves in the absence and presence of antagonist are measured as described for the agonist studies. […]
M3 (ileum) (M3 receptor [1]),SMILES,Log10 selectivity (M3 receptor [2]),M2 antagonist pA2 (atria) (M2 receptor)
6.5 ± 0.4 (3 pts),"O=C1CN(CCNCc2ccccc2)Cc2ccccc2[C@]1(O)C1CCC1 (stereo in doubt) [Compound 19, 2-[2-(benzylamino)ethyl]-5-cyclobutyl-5-hydroxy-1,3,4,5-tetrahydrobenzo[c]azepin-4-one]",1.6 ± 0.7,4.9 ± 0.6 (4 pts)
6.7 ± 0.4 (4 pts),"O=C1CN(CCCNCc2ccccc2)Cc2ccccc2[C@]1(O)C1CCC1 (stereo in doubt) [Compound 22, 2-[3-(Benzylamino)propyl]-5-cyclobutyl-5-hydroxy-1,2,3,5-tetrahydrobenzo[c]azepin-4-one]",1.5 ± 0.5,5.2 ± 0.3 (4 pts)
